Results from US8816070B2, “Triazole derivative as an HSP 90 inhibitor” (Merck Patent GmbH, priority 2007, dated 2014).

How the values were obtained:
Recombinant human HSP90α = molecular target: T1, Recombinant human HSP90α (Homo sapiens, UniProt P07900); test: HSP90 radioligand filter binding test ([3H]17AAG competition)
T1 construct: host or cells: E. coli
Text: The binding of geldanamycin or 17-allylamino-17-demethoxygeldanamycin (17AAG) to HSP90 and competitive inhibition thereof can be utilised in order to determine the inhibitory activity of the compounds according to the invention (Carreras et al. 2003, Chiosis et al. 2002).
In the specific case, a radioligand filter binding test is used. The radioligand used here is tritium-labelled 17-allylaminogeldanamycin, [3H]17AAG. This filter binding test allows a targeted search for inhibitors which interfere with the ATP binding site.
Recombinant human HSP90α (E. coli expressed, 95% purity); [3H]17AAG (17-allylaminogeldanamycin, [allylamino-2,3-^3H. Specific activity: 1.11×10^12 Bq/mmol (Moravek, MT-1717);
HEPES filter buffer (50 mM HEPES, pH 7.0, 5 mM MgCl2, BSA 0.01%) Multiscreen FB (1 μm) filter plate (Millipore, MAFBNOB 50).
The 96-well microtitre filter plates are firstly irrigated and coated with 0.1% of polyethylenimine.
At the end of the reaction, the supernatant in the filter plate is removed by suction with the aid of a vacuum manifold (Multiscreen Separation System, Millipore), and the filter is washed twice.
The filter plates are then measured in a beta counter (Microbeta, Wallac) with scintillator (Microscint 20, Packard).
“% of control” is determined from the “counts per minutes” values and the IC50 value of a compound is calculated therefrom.

[1] = Relative stability of polymorphic forms of C1; type: physicochemical; details: form A1 versus form A2 of C1
Text: Two polymorphic forms A1 and A2 of the compound “C1” according to the invention can be isolated.
Form A2 can be converted into A1, for example by stirring in solvents such as methanol, ethanol, acetone, DMF, acetic acid, formic acid, THF or isopropanol.

higher activity in HSP90 inhibition compared with "A47" (Recombinant human HSP90α; C1 versus A47 from the closest prior art)	IC50 (Recombinant human HSP90α; [3H]17AAG 0.08 μM, 22° C., 30 min, read-out: HSP90 inhibition IC50) [µM]	thermodynamic stability of polymorphic form [1]	SMILES
approximately 10 times	0.029		CCCCN(C)C(=O)c1cc(-c2n[nH]c(=O)n2-c2ccccc2C)c(O)cc1O [Compound C1, 5-[4-(2-methylphenyl)-3-hydroxy-4H-1,2,4-triazol-5-yl]-2,4-dihydroxy-N-methyl-N-butylbenzamide]
		thermodynamically more stable form	CCCCN(C)C(=O)c1cc(-c2nnc(O)n2-c2ccccc2C)c(O)cc1O [Form A1, 5-[4-(2-methylphenyl)-3-hydroxy-4H-1,2,4-triazol-5-yl]-2,4-dihydroxy-N-methyl-N-butylbenzamide]
